US20260306460A1, “COMPOSITION FOR REMOVING AND INHIBITING SENESCENT CELLS, AND USES THEREOF” (LIFECEUTIX CO., LTD., priority 2023, published 2026)

Columns and labels:
[1] = system: transplanted liver of aged mice; experiment: Efficiency of liver transplantation from aged mice into young mice; assay type: in vivo, mouse
Experimental: In addition, the efficiency of liver transplantation was evaluated. Livers extracted from aged mice of Example 21-1, untreated and treated with LX-403, were transplanted into young 3-month-old mice, and the efficiency of liver transplantation was evaluated 3 days later through analysis of aging and liver damage markers. As a result, when treated with LX-403, the amount of p16, an aging-related marker of the liver after transplantation, and serum AST and ALT, liver damage markers, decreased compared to the control group. […] This improvement in transplantation efficiency was also confirmed when the livers extracted from aged mice were transplanted after removing senescent cells under ex vivo conditions, such as by culturing them in an LX-403-containing medium.

[2] = system: obesity-induced aged C57BL6J mice; experiment: Open field test in obese aged mice given senescent cells killed by test compound, Example 16; assay type: in vivo, mouse; conditions: senescent preadipocytes killed by test compound sc; no administration = 100%
[3] = system: proliferating A549 cells; experiment: Survival of proliferating A549 cells treated with supernatant from death-induced cancer cells, Example 14; assay type: cell-based, human; conditions: for viability at 30 µM: Homo sapiens
Experimental: In the same way as Examples 12 and 13, senescence of cancer (A549) cells was induced by treatment with doxorubicin or the control group (DMSO), and the cells were cultured. The cells were treated with LX-405 at a concentration of 30 μM. 3 days later, cell viability was measured using CellTiter-Glo Luminescent Cell Viability Assay (Promega) or an optical microscope. In the same manner as in Example 13, the medium supernatants comprising secreted fluid from normally proliferating and senescent cancer cells was obtained. Normally proliferating and senescent-induced cancer cells were treated with the medium supernatants.

[4] = system: doxorubicin-induced aged C57BL6J mice; experiment: Lipofuscin staining in muscle of doxorubicin-aged mice, Example 22-4, Table 33; assay type: in vivo, mouse; conditions: staining area, untreated aged = 100
Experimental: (§1) Eight-week-old male C57BL6J mice (KRIBB Laboratory Animal Resource Center) were acclimated to the experimental environment for one week. Afterwards, the anticancer agent doxorubicin was administered intraperitoneally at a concentration of 10 mg/kg, inducing aging for more than 10 days. The aging-induced mice were randomly assigned to experimental and control groups. LX-403 was mixed with a 10% ethanol solution of PEG400 and administered orally at a concentration of 25 mg/kg or intradermally at a concentration of 1 μM for 21 days. LX-1801 was mixed in distilled water with 4% DMSO, 30% PEG300, and 5% Tween80 and administered intradermally at a concentration of 0.4 μM daily for 21 days. LX-2001 was mixed in PBS and administered intradermally at a concentration of 2 μM daily for 21 days. LX-2002 was mixed in distilled water with 4% DMSO, 30% PEG300, and 5% Tween80 and administered intradermally at a concentration of 2 μM daily for 21 days. […] LX-2005 was mixed in distilled water with 4% DMSO, 30% PEG300, and 5% Tween80 and administered intradermally at a concentration of 90 μM daily for 21 days. LX-2007 was mixed in distilled water with 4% DMSO, 30% PEG300, and 5% Tween80 and administered intradermally at a concentration of 90 μM daily for 21 days. […]

[5] = system: doxorubicin-induced aged C57BL6J mice; experiment: Serum IL6 (ELISA) in doxorubicin-aged mice, Example 22-5, Table 34; assay type: in vivo, mouse; conditions: untreated aged = 100
Experimental: as §1, with “days.” for “days. LX-2007 was mixed in distilled water with 4% DMSO, 30% PEG300, and 5% Tween80 and administered intradermally at a concentration of 90 μM daily for 21 days.”
The amount of IL6, a senescence-associated secretory factor (SASP), was measured in serum collected from mice using the same method as in Example 7-5 of WO2023-085787 A1 using an enzyme-linked immunosorbent assay (ELISA Kit, R&D Systems).

[6] = system: obesity-induced aged C57BL6J mice; experiment: Serum IL6 and activin A (ELISA) in obesity-aged mice, Example 23-3, Table 43; assay type: in vivo, mouse; conditions: 360 mg/kg oral daily for 21 days
Experimental: (§2) 15-week-old male C57BL6J mice (The Jackson Laboratory) were induced to obesity by a high-fat diet using the same method as in Example 9-1 WO2023-085787 A1. After acclimation to the experimental environment for one week, the mice were randomly assigned to experimental and control groups. […] LX-3002 was mixed in distilled water with 4% DMSO, 30% PEG300, and 5% Tween80 and administered orally at a concentration of 10 mg/kg daily for 21 days. LX-5701 was mixed in PBS and administered orally at a concentration of 360 mg/kg daily for 21 days. LX-6807 was mixed in saline and administered intraperitoneally at a concentration of 1 mg/kg daily for 21 days. The control group received only the solution in the same volume. After the end of drug administration, the methods described in each example below were performed.
The levels of IL6 and activin A, senescence-associated secretory factors (SASP), were measured in serum collected from mice using the same method as in Example 7-5 of WO2023-085787 A1 using an enzyme-linked immunosorbent assay (ELISA Kit, R&D Systems).

[7] = system: obesity-induced aged C57BL6J mice; experiment: p16 and p21 mRNA in obesity-aged mice, Example 23-2, Table 42; assay type: in vivo, mouse; conditions: 360 mg/kg oral daily for 21 days, untreated 100%
Experimental: as §2
Mice were sacrificed using the same method as in Example 7-2 of WO2023-085787 A1. RNA was extracted from organ tissues from each site, and the synthesized cDNA was used for qRT-PCR (quantitative real-time PCR) analysis. […] The mRNA levels of p16 and p21 after obesity induction were calculated as 100% and compared with the mRNA levels of p16 and p21 after LX-5701 treatment.

In the case of O=C(C(C[N+](=O)[O-])=NO)N1CCN(C(c2ccc(Cl)cc2)c2ccc(Cl)cc2)CC1 [LX-403], the “p16 of transplanted liver, serum AST and ALT” value ([1]; 3 days after transplantation) is reported as “decreased” and the “efficiency of liver transplantation” value ([1]; mouse, in vivo) is reported as “improves the efficiency of long-term liver transplantation”.
In the case of S=C(N/N=C1\CCCc2cccnc21)N1CCN(c2ccccn2)CC1 [LX-801], the “Open Field Test Time in Center” value [2] is reported as 216.8 (±12.8) %.
For COC(=O)c1ccc([C@H]2c3[nH]c4ccccc4c3C[C@H](C(=O)OC)N2C(=O)CCl)cc1 [LX-405], the Survival ([3]; A549, supernatant from No Cells) was 101.4 (±1.3) %, the viability at 30 µM ([3]; A549, A549, supernatant from death-induced proliferating cells) was 98.6% and the viability at 30 µM ([3]; A549, A549, supernatant from death-induced senescent cells) was 105%.
For O=C1C2CCN(CC2)C1CNC(=O)C(F)(F)F (stereo not drawn) [LX-5701], the “Lipofuscin (%), Muscle” value [4] was 64 (±13.1) %, the “IL6 (%)” value [5] was 57 (±21.5) % and the “Activin A” value ([6]; untreated 100 (±7.5)) was 61.7 (±14.0) %. For the same molecule, the IL6 ([6]; untreated 100 (±11.6)) was 53.9 (±15.4) %, the “p16 mRNA, Eye” value ([7]; Eye) was 71% and the “p21 mRNA, Eye” value ([7]; Eye) was 70%. The “p16 mRNA, Heart” value ([7]; Heart) was 80%, the “p21 mRNA, Heart” value ([7]; Heart) was 81% and the “p16 mRNA, Liver” value ([7]; Liver) was 63%. The “p21 mRNA, Liver” value ([7]; Liver) was 61%, the “p16 mRNA, Lung” value ([7]; Lung) was 74% and the “p21 mRNA, Lung” value ([7]; Lung) was 77%. For the same molecule, the “p16 mRNA, Muscle” value ([7]; Muscle) was 75%, the “p21 mRNA, Muscle” value ([7]; Muscle) was 64% and the “p16 mRNA, Skin” value ([7]; Skin) was 77%. The “p21 mRNA, Skin” value ([7]; Skin) was 68%, the “p16 mRNA, asWAT” value ([7]; asWAT) was 67% and the “p21 mRNA, asWAT” value ([7]; asWAT) was 79%. The “p16 mRNA, eWAT” value ([7]; eWAT) was 65%, the “p21 mRNA, eWAT” value ([7]; eWAT) was 55% and the “p16 mRNA, iBAT” value ([7]; iBAT) was 72%. For the same molecule, the “p21 mRNA, iBAT” value ([7]; iBAT) was 80%, the “p16 mRNA, iWAT” value ([7]; iWAT) was 61% and the “p21 mRNA, iWAT” value ([7]; iWAT) was 51%.
